Laboratory results: patent US20040058425A1, “Crystal structure” (priority 2001, published 2004)

Experiments:
[1] = system: PDHK; assay: Kinase activity of PDHK using a PDHK specific substrate peptide; assay type: biochemical; conditions: data not shown
[2] = system: PDHK; assay: Assay to measure whether compounds inhibit PDHK activity (kinase reaction with porcine PDH and MgATP, then residual PDH activity by NAD reduction at 340 nm); assay type: biochemical; conditions: result in words
Protocol: Compounds were assessed for inhibition of PDHK in an assay adapted from Espinal, J. et al (1995) Drug Development Res. 35, 130-136. In the first part of the assay, compounds were incubated with porcine PDH (Sigma P-7032) and MgATP, and the reaction was stopped after defined intervals. In the second part of the assay, the residual PDH activity was measured by monitoring the rate of reduction of NAD at 340 nm.
The assay was performed in flat-bottom 96-well microtitre plates, using a final volume of 50 μl for the first part of the assay (kinase reaction), and 250 μl for the PDH reaction. At first, 10 μl test compound in a suitable diluent, 20 μl kinase buffer (20 mM potassium phosphate, pH7.0, 4 mM MgCl2, 4 mM dithiothreitol) and 10 μl PDH (Sigma, P-7032, diluted with water to a final concentration of 1.83 mg/ml) were mixed and incubated for 10 min; then 10 μl ATP solution (125 μM in kinase buffer) was added to start the reaction.
The incubations were done at 30° C. The kinase reaction was terminated after defined intervals (usually 0, 10, 20, 30, 60, and 90 min) by initiating the PDH reaction. […] Kinetic readings were then taken at 340 nm conducted at 12 sec intervals for 20 min with shaking for 1 sec before each reading was taken, in a SpectraMax plate reader. […]

Compound	inhibition of the kinase activity of PDHK [1]	ATP dependent inhibition of the PDH complex [2]
CC1CN(C(=O)C(C)(O)C(F)(F)F)C(C)CN1C(=O)c1ccc(C#N)cc1 (stereo not shown) [Compound 1]	do not inhibit the kinase activity of PDHK	prevent ATP dependent inhibition of the PDH complex
N-{4-[(ethylanilino)sulfonyl]-2-methylphenyl}-3,3,3-trifluoro-2-hydroxy-2-methylpropanamide [Compound 2]	do not inhibit the kinase activity of PDHK	prevent ATP dependent inhibition of the PDH complex
